Results from patent US20210317408A1, “METHODS AND COMPOSITIONS FOR GENETICALLY MODIFYING LYMPHOCYTES IN BLOOD OR IN ENRICHED PBMCS” (Exuma Biotech Corp., priority 2018, published 2021).

B1: SMAD4: miRNA in miR-155 framework directed against SMAD4, SEQ ID NOs:406-409 (nucleic acid)
DNA 1: CGGCACCTGCGCTGCCGTTGGATCGGGGATGAAAGCTGGCGCTGGAGGCTTGCTGAAGGCTGTATGCTGAATTAGGTGTGTATGGTGCAGGTTTTGGCCACTGACTGACCTGCACCACACACCTAATTCAGGACACAAGGCCTGTTACTAGCACTCACATGGAACAAATGGCCCACATTGGTGCCGGATGAAGCTCTTATGTTGCGTCCCATCGCAGGTGCCT
DNA 2: CCTCACCTGCTTGCGTCCCATTCTGGAGGCTTGCTGAAGGCTGTATGCTGAAGTACTTCGTCTAGGAGCTGGTTTTGGCCACTGACTGACCAGCTCCTACGAAGTACTTCAGGACACAAGGCCTGTTACTAGCACTCACATGGAACAAATGGCCGTTGCCTGAGTCTTGGCAGCGAGAGATCACTAACTGCTAAGCAGGTGCTT
DNA 3: TGTCACCTGCACTAACTGCTAACTGGAGGCTTGCTGAAGGCTGTATGCTGTATCCCACGATCTACTCCCCGGTTTTGGCCACTGACTGACCGGGGAGTATCGTGGGATACAGGACACAAGGCCTGTTACTAGCACTCACATGGAACAAATGGCCGTGTTAATTGTCCATGTAGCGAGGCATCCTTATGGCGTGGGCAGGTGTCC
DNA 4: CCTTCACCTGCCTTATGGCGTGGCTGGAGGCTTGCTGAAGGCTGTATGCTGTTATGATGGTAAGTAGCTGGCGTTTTGGCCACTGACTGACGCCAGCTATACCATCATAACAGGACACAAGGCCTGTTACTAGCACTCACATGGAACAAATGGCCGGTGTCCGTTATCGGGGAAGAAGGTCGCGCACATAGCAGGTGTCC
modifications: Synthetic SMAD4 miRNA at P1; Synthetic SMAD4 miRNA at P2; Synthetic SMAD4 miRNA at P3; Synthetic SMAD4 miRNA at P4

Experiments:
[1] = test system: unstimulated PBMCs; test: Time course of lentiviral transduction of unstimulated PBMCs, 4 hours to less than 1 minute; assay type: cell-based, human; conditions: 10 μM during 4 hour transduction, replenished in recovery medium
[2] = test system: transduced human PBMCs expressing a CAR in CHO, CHO-ROR2 or CHO-AXL tumors; test: miRNA library in vivo screen: miRNA blocks recovered from tumors 20 days after dosing transduced PBMCs; parameters: species or system mouse; conditions: conclusion from miRNA constructs recovered from tumors at day 20
Source text: 108 gBlocks® Gene Fragments were used to generate a library of constructs each containing 4 miRNA precursors in series in positions 1 (P1), 2 (P2), 3 (P3), and 4 (P4). Each gBlock® was specific to P1, P2, P3, or P4 and contained a miR-155 framework (SEQ ID NO:457), including a 5′arm and a 3′arm as described in Example 17 of WO 2019/055946, in which a unique miRNA fragment targeting an mRNA transcript corresponding to 1 of 27 different genes was used to replace the miR-155 stem-loop precursor. For clarity, the sequences of miRNA fragments differed for each position P1-P4 even among miRNA fragments that targeted mRNA transcripts corresponding to the same gene. The gBlocks® for each position contained a unique 40 bp overlap sequence and the type IIs assembly method was used to assemble combinations of four gBlocks® in their prescribed order, to generate the library. By these methods, a total diversity of 531,441 unique constructs (27 miRNA at P1×27 miRNA at P2×27 miRNA at P3×27 miRNA at P4) was possible.
The library of miRNA constructs was separately cloned into the EF-1 alpha intron A of F1-1-315 and F1-2-314 to generate Library 315 and Library 314, respectively. In addition to the EF-1 alpha promoter, F1-1-315 included a CD8a signal peptide, an anti-ROR2:CD28:CD3z CAR, T2A, and an eTag. […]

Molecule | inhibition of transduction [1] | effect of knocking down the transcript on T cells in the tumor microenvironment [2]
Cc1cc(C)c(Nc2ccnc(Nc3ccc(C#N)cc3)n2)c(C)c1 [dapivirine] | inhibition of transduction | –
C[C@@H]1CCO[C@H]2Cn3cc(C(=O)NCc4ccc(F)cc4F)c(=O)c(O)c3C(=O)N12 [dolutegravir] | inhibition of transduction | –
B1 | – | promote the survival and/or proliferation of T cells
